Where “and” joins values, the source holds several entries; their conditions need not be identical. Equal entries are not always repeated. After the bases stand the sugars from the 5' end (letter, count) and the backbone: PS all phosphorothioate, else s phosphorothioate and o phosphodiester by linkage. Methylation of C is not given here. e = 2'-O-(2-methoxyethyl) (MOE); k = constrained ethyl (cEt); d = 2'-deoxy (DNA); m = 2'-O-methyl
Molecular target: HSD17B13
Settings: ASO, HepaRG

Sequence | target mRNA inhibition (1 µM) | further results
ATGTATCTTATAAGAC (sugars k3 d9 k3 e1, PS) | 24% | 
TTCAGAGTTATACAGA (sugars k3 d10 k3, PS) | 66% | 
TTGACTGCTGCTAGTG (sugars kkdddddddddkekek, PS) | 29% | 
CTGCCAGGGAATGCTC (sugars k3 d10 k3, PS) | 23% | 
GCCTAAACATTTCTCA (sugars k3 d10 k3, PS) | 2% | 
AATTATGCCTTGTGGC (sugars k3 d10 k3, PS) | 19% | 
TAAAGGTTTCTGTTGC (sugars k3 d10 k3, PS) | 66% | target mRNA inhibition (0.02 µM): 0%; target mRNA inhibition (0.078 µM): 9%; target mRNA inhibition (0.313 µM): 32%; target mRNA inhibition (1.25 µM): 67%; target mRNA inhibition (5 µM): 74%
TTGCACCGTTTTGGGC (sugars kkdddddddddkekek, PS) | 26% | 
CTCCTGGTACATGCCA (sugars k3 d10 k3, PS) | 47% | 
ACATTAGCAAGCTAAG (sugars k3 d9 k3 e1, PS) | 41% | 
TCCCAACCAAACTTCC (sugars k3 d10 k3, PS) | 82% | target mRNA inhibition (0.02 µM): 0%; target mRNA inhibition (0.078 µM): 0%; target mRNA inhibition (0.313 µM): 7%; target mRNA inhibition (1.25 µM): 25%; target mRNA inhibition (5 µM): 63% and 50%
CAATTATATGAGGTCT (sugars k3 d10 k3, PS) | 36% | 
CAGTCTTAAACCTTCC (sugars k3 d10 k3, PS) | 70% | 
TGGAAACATGCTTGGC (sugars k3 d10 k3, PS) | 62% | 
CCAAGTAGGAGTAGAT (sugars k3 d10 k3, PS) | 19% | 
ACAGATTGGAATGCTA (sugars kkdddddddddkekek, PS) | 49% | 
GCTATAGGTAGCTAAT (sugars k3 d10 k3, PS) | 20% | 
AACTUCATAGTGGACT (sugars k3 d1 m1 d8 k3, PS) | 38% | 
TATAGTTATCTTCTCA (sugars k3 d1 m1 d8 k3, PS) | 33% | 
CTTTGAGACTCTTGTT (sugars k3 d1 m1 d8 k3, PS) | 15% | 
ACCGTTTTGGGCTAAT (sugars k3 d9 k3 e1, PS) | 73% | 
CATCGATGGAAGAAGT (sugars k3 d10 k3, PS) | 16% | 
TGCAAAGTTAATAGGA (sugars k3 d10 k3, PS) | 43% | 
AGAAATTTGTGAACCT (sugars k3 d10 k3, PS) | 39% | 

Sequence | target mRNA inhibition (1 µM) | further results
ATGAAGTTAGTATAGT (sugars k3 d1 m1 d8 k3, PS) | 38% | 
TTACAGCCTTAGAGTG (sugars k3 d10 k3, PS) | 21% | 
CTGATTTAGTTGGTAG (sugars k3 d10 k3, PS) | 78% | target mRNA inhibition (0.02 µM): 0%; target mRNA inhibition (0.078 µM): 0%; target mRNA inhibition (0.313 µM): 41%; target mRNA inhibition (1.25 µM): 70%; target mRNA inhibition (5 µM): 88%
TGTAATAGCCAGTACA (sugars k3 d10 k3, PS) | 46% | 
CTTTUTATAGACTGGG (sugars k3 d1 m1 d8 k3, PS) | 34% | 
GCTTTAGCTTAAACTC (sugars k3 d10 k3, PS) | 72% | 
AGGATGTTGACCTCAA (sugars k3 d10 k3, PS) | 4% | 
CCCTTAACAAACCTCC (sugars k3 d10 k3, PS) | 43% | 
ATAAGGCCGATTCATG (sugars k3 d10 k3, PS) | 38% | 
ATTGAGATGACAGTGG (sugars k3 d10 k3, PS) | 70% | target mRNA inhibition (0.02 µM): 21%; target mRNA inhibition (0.078 µM): 40%; target mRNA inhibition (0.313 µM): 64%; target mRNA inhibition (1.25 µM): 77%; target mRNA inhibition (5 µM): 91%
TTATTGGTATGGTAAG (sugars k3 d10 k3, PS) | 14% | 
TTGGTATGGTAAGCCC (sugars k3 d10 k3, PS) | 62% | 
GGCTTAATGTTCAGTT (sugars k3 d10 k3, PS) | 54% | 
ATCTTATAAGACTATA (sugars kkdddddddddkekek, PS) | 30% | 
TGACTGCTGCTAGTGC (sugars k3 d10 k3, PS) | 50% | 
TTTATTATGAGGATCT (sugars k3 d10 k3, PS) | 43% | 
TGGAATGCTACTTGAA (sugars k3 d9 k3 e1, PS) | 57% | 
GAATCCATTCTATGCA (sugars k3 d10 k3, PS) | 47% | 
TGTCATAAAGGTGGGA (sugars k3 d10 k3, PS) | 48% | 
CCCGCCCTTAAGTCAT (sugars k3 d10 k3, PS) | 45% | 
AATCACAAGTAAGGTA (sugars k3 d10 k3, PS) | 52% | 
CTGAGCTAGACAATTG (sugars k3 d10 k3, PS) | 56% | 
AGGGAAGATCTGGCTG (sugars k3 d10 k3, PS) | 4% | 
CTCTGGGACCAAGGAT (sugars k3 d9 k3 e1, PS) | 62% | 

Sequence | target mRNA inhibition (1 µM) | further results
TATTCTGTGGCATGGC (sugars k3 d1 m1 d8 k3, PS) | 55% | 
AAAAGGCCCAAGGCTT (sugars k3 d10 k3, PS) | 30% | 
CAAATTTGCTGGAACT (sugars k3 d10 k3, PS) | 39% | 
AGTGAATCATTCAGTA (sugars k3 d10 k3, PS) | 86% | target mRNA inhibition (0.02 µM): 49%; target mRNA inhibition (0.078 µM): 54%; target mRNA inhibition (0.313 µM): 80%; target mRNA inhibition (1.25 µM): 93%; target mRNA inhibition (5 µM): 94%
CTATATACATCCAAGT (sugars k3 d10 k3, PS) | 6% | 
GTATTCCATCTATCAG (sugars k3 d9 k3 e1, PS) | 51% | 
TTGGGTCCATTGTTTC (sugars k3 d10 k3, PS) | 44% | 
CAGACCTATGAAAAAC (sugars k3 d10 k3, PS) | 26% | 
AAATTATACTTTTCCG (sugars k3 d10 k3, PS) | 85% | target mRNA inhibition (0.02 µM): 0%; target mRNA inhibition (0.078 µM): 38%; target mRNA inhibition (0.313 µM): 66%; target mRNA inhibition (1.25 µM): 88%; target mRNA inhibition (5 µM): 92%
CTCCTTATGTTATCTC (sugars k3 d10 k3, PS) | 57% | 
TGAAGTTAGTATAGTT (sugars k3 d10 k3, PS) | 43% | 
GGACAAATGCCTGAGA (sugars k3 d10 k3, PS) | 52% | 
TATGACAACTGGAGGT (sugars k3 d10 k3, PS) | 14% | 
TGTAATAGCCAGTACA (sugars k3 d1 m1 d8 k3, PS) | 40% | 
ACAAGAGTTCTTGCAG (sugars k3 d10 k3, PS) | 29% | 
GTCCACTTTTGGTGGA (sugars k3 d10 k3, PS) | 14% | 
TTTATAGACTGGGTAG (sugars k3 d10 k3, PS) | 59% | 
TATCTTAAGAGAAGGT (sugars k3 d10 k3, PS) | 29% | 
GCCACTGTGACGATGT (sugars k3 d10 k3, PS) | 9% | 
GAGTTGCACCGTTTTG (sugars kkdddddddddkekek, PS) | 61% | 
CAAGATTAGTCTTGAT (sugars k3 d10 k3, PS) | 27% | 
TCTTGACAATGGTTGC (sugars k3 d9 k3 e1, PS) | 77% | target mRNA inhibition (0.02 µM): 0%; target mRNA inhibition (0.078 µM): 0%; target mRNA inhibition (0.313 µM): 11%; target mRNA inhibition (1.25 µM): 46%; target mRNA inhibition (5 µM): 79%
TGTGCACTCATTCTGT (sugars k3 d10 k3, PS) | 18% | 
ACAATTAACATTCGGC (sugars k3 d10 k3, PS) | 77% | target mRNA inhibition (0.02 µM): 13%; target mRNA inhibition (0.078 µM): 15%; target mRNA inhibition (0.313 µM): 43%; target mRNA inhibition (1.25 µM): 62%; target mRNA inhibition (5 µM): 79%

Sequence | target mRNA inhibition (1 µM) | further results
ATAGCCAGTACAGTTC (sugars k3 d10 k3, PS) | 65% | 
TCGGUCACCTTTCATA (sugars k3 d1 m1 d8 k3, PS) | 21% | 
GCTGCTAGTGCCAAAC (sugars k3 d10 k3, PS) | 67% | 
GTGGATTACATACAAG (sugars k3 d10 k3, PS) | 57% | 
ATCTCTGGGACCAAGG (sugars k3 d1 m1 d8 k3, PS) | 52% | 
TTATACTGAAGGCTGT (sugars k3 d10 k3, PS) | 23% | 
TAATTACAACCTGGTT (sugars k3 d10 k3, PS) | 52% | 
CCCTGTGTAAATAAGT (sugars k3 d10 k3, PS) | 41% | 
TCATACCACATACCCA (sugars k3 d10 k3, PS) | 41% | 
ATAAAAATCGCTGCTT (sugars k3 d10 k3, PS) | 11% | 
AGCTAGATACTCAATT (sugars k3 d10 k3, PS) | 2% | 
CAAAAGACTTTGAGAC (sugars kkdddddddddkekek, PS) | 32% | 
GTCGGTCACCTTTCAT (sugars k3 d9 k3 e1, PS) | 68% | 
GGCTACAGATTGGAAT (sugars k3 d10 k3, PS) | 23% | 
CATAAAGGTGGGATAA (sugars k3 d10 k3, PS) | 23% | 
ACTGAGTAAACGACTC (sugars k3 d10 k3, PS) | 45% | 
TCATAAAGGTGGGATA (sugars k3 d10 k3, PS) | 40% | 
CTAGTTACAAACCACC (sugars k3 d10 k3, PS) | 43% | 
ATGTTGACCTCAAATG (sugars k3 d10 k3, PS) | 0% | 
CCTATGAAAAACTACG (sugars k3 d10 k3, PS) | 36% | 
AATAUGGGATGAGGTA (sugars k3 d1 m1 d8 k3, PS) | 38% | 
TCCTGTGTTAGCTTTA (sugars k3 d10 k3, PS) | 56% | 
GCCAAAAATCAGCCAC (sugars k3 d10 k3, PS) | 11% | 
CACCAACGACTCCAAG (sugars k3 d10 k3, PS) | 16% | 

Source: the OligoGym collection
